From patent publication US7601332B2, “Vitamin receptor binding drug delivery conjugates” (priority 2003, dated 2009)

Assays:
[1] = Toxicity based on animal body weights in tumor-bearing mice; assay type: in vivo; settings: Balb/c mice, s.c. M109 tumors, i.v. twice a week for 4 weeks, 2-10 μmol/kg
Protocol: The anti-tumor activity of the compounds of Examples 9b (EC111) and 9c (EC112), where the drug is daunorubicin, when administered intravenously (i.v.) to tumor-bearing animals, was evaluated in Balb/c mice bearing subcutaneous M109 tumors. Four days post tumor inoculation in the subcutis of the right axilla with 1×10^6 M109 cells, mice (5/group) were injected i.v. twice a week for 4 weeks with 2-10 μmol/kg of the compound of either Example 9b or Example 9c or with unconjugated daunorubicin or PBS. Tumor growth was measured using calipers at 3-day or 4-day intervals in each treatment group. Tumor volumes were calculated using the equation V=a×b^2/2, where “a” is the length of the tumor and “b” is the width expressed in millimeters. Animal body weight was also determined at 3-day or 4-day intervals.
The protocol was as described in Example 42 except that the compound of Example 10a (EC105) was used, where the drug is bis-indolyl-seco-CBI. The compound of Example 10a was injected at a dose of 0.3 μmol/kg. Also, two subcutaneous tumor models were tested including the M109 model (folate receptor-positive) and the 4T1 model (folate receptor-negative), and in some animals a 67-fold excess of free folate (20 μmol/kg; FA) was coinjected with the conjugate (i.e., the compound of Example 10a).

[2] = tested on: M109 tumors (folate receptor-positive); assay: Inhibition of subcutaneous M109 tumor growth in mice; assay type: in vivo; settings: Balb/c mice, s.c. M109 tumors, i.v. twice a week for 4 weeks, 2-10 μmol/kg
Protocol: The anti-tumor activity of the compounds of Examples 9b (EC111) and 9c (EC112), where the drug is daunorubicin, when administered intravenously (i.v.) to tumor-bearing animals, was evaluated in Balb/c mice bearing subcutaneous M109 tumors. Four days post tumor inoculation in the subcutis of the right axilla with 1×10^6 M109 cells, mice (5/group) were injected i.v. twice a week for 4 weeks with 2-10 μmol/kg of the compound of either Example 9b or Example 9c or with unconjugated daunorubicin or PBS. Tumor growth was measured using calipers at 3-day or 4-day intervals in each treatment group. Tumor volumes were calculated using the equation V=a×b^2/2, where “a” is the length of the tumor and “b” is the width expressed in millimeters. Animal body weight was also determined at 3-day or 4-day intervals. […]
The anti-tumor activity of the compound of Example 16b (EC145), where the drug is deacetylvinblastine monohydrazide, when administered intravenously (i.v.) to tumor-bearing animals, was evaluated in Balb/c mice bearing subcutaneous M109 tumors. […] Tumor growth was measured using calipers at 2-day or 3-day intervals in each treatment group. Tumor volumes were calculated using the equation V=a×b^2/2, where “a” is the length of the tumor and “b” is the width expressed in millimeters. […]

Row | Structure (SMILES) | toxicity based on animal body weights [1] | anti-tumor activity (growth of M109 tumors) [2]
1 | COc1cccc2c1C(=O)c1c(O)c3c(c(O)c1C2=O)C[C@@](O)(/C(CO)=N\NC(=O)CCN1C(=O)CC(SC[C@H](NC(=O)CC[C@H](NC(=O)c2ccc(NCc4cnc5nc(N)[nH]c(=O)c5n4)cc2)C(=O)O)C(=O)O)C1=O)C[C@@H]3O[C@H]1CC(N)[C@H](O)C(C)O1 (stereo partly shown) [Example 9c] | no apparent toxicity | effective in delaying the growth of M109 tumors
2 | COc1cccc2c1C(=O)c1c(O)c3c(c(O)c1C2=O)C[C@@](O)(C(=O)CO)C[C@@H]3O[C@H]1C[C@H](N)[C@H](O)[C@H](C)O1 [doxorubicin] | concomitant toxicity | provided an anti-tumor response
